Here are results for 7 compounds from publication PMC10373114, “CDK2 regulates collapsed replication fork repair in CCNE1-amplified ovarian cancer cells via homologous recombination” (NAR Cancer, 2023).

Test [1] concerns COV644 cells. In words: CyQuant proliferation assay. It counts as cell-based, human. The settings on record: 5 days. As for the experimental part:
(§1) OVCAR-3, COV644, or MCF-7 cells were seeded at 1000 cells/well in 384-well black, clear bottom plates and allowed to adhere overnight at 37°C/5% CO2. The following day, cells were treated with compound in a 10-point dose response, 1:4 dilutions. After 5 days of incubation, CyQuant Direct Proliferation Assay was performed according to the manufacturer's instructions. Data were processed with GraphPad Prism using a four-parameter fit to calculate IC50.

Test [2] concerns MCF-7 cells. In words: CyQuant proliferation assay. It counts as cell-based. The settings on record: Homo sapiens, MCF7, 120 h, read-out: MCF-7 IC50. The protocol:
as §1

In test [3] the test system is kinases tested (n = 468). Nature of the test: KINOMEscan kinome selectivity. It counts as binding. As to conditions: fraction of kinases with <10% of control at 3 μM among 468 kinases tested.
Test [4] has as its system CtIP bandshift and pRPA S4/8. Nature of the test: Western blot of HR signaling after etoposide. The format is cell-based. The settings on record: 1 μM RO-3306 or 10 μM roscovitine, 24 h before 50 μM etoposide 2 h. As for the experimental part: Cells were lysed in PhosphoSafe Lysis Buffer (EDM millipore, Cat#71296) and protein was quantified using the Pierce BCA Gold Kit (Thermo Fisher Scientific Cat#A53227). Lysate and lysis buffer were combined with 4× Loading Dye (Bio-Rad, Cat#1610747) and 2ME (Bio-Rad, Cat#1610710). Samples were loaded into Bio-Rad 4–20% Tris-glycine, 18-well SDS-PAGE (Cat#5671094). Transfer was performed using Bio-Rad dry transfer system (Trans-Blot Turbo) (Nitrocellulose membrane, 0.2 μM). Blocking was performed using LI-COR Odyssey Blocking Buffer (Cat#927–70001). Primary antibodies (CDK2 1:500, p16 1:1000, CCNE1 1:500, pRbT821 1:500, Actin R 1:2000, p21 1:1000, CCNA2 1:500, pRb S807/811 1:1000, pRb S780 1:500, CtIP 1:1000, Actin M 1:5000, pH2A.X Ser139 1:1000, pCDK2 T160 1:1000, pRPA S4/8 1:1000, CDK1 1:1000, pCDK1 Y15 1:1000, pChk1 S317 1:500, Total Chk1 1:1000, Tubulin 1:10 000) were combined with Odyssey Blocking Buffer and 0.1% Tween-20, and incubated at 4°C, rotating. Secondary antibodies were combined with Odyssey Blocking Buffer and 0.1% Tween-20 and incubated at room temperature, rotating. All secondary antibodies were diluted to 1:10 000 (LI-COR Cat#926–33212, Cat#926-33213, Cat#926-68070, Cat#926–68071, Cat#926–68076). Signals were detected using LI-COR Odyssey CLx Imaging Studio.

For test [5], the system named is OVCAR-3 cells. Nature of the test: CyQuant proliferation assay. It counts as cell-based, human. The settings on record: 5 days. The protocol:
as §1

The test system of test [6] is OVCAR-3 cells. Nature of the test: Proliferative recovery after HU-induced replication fork collapse (IncuCyte confluence). The format is cell-based, human. The settings on record: 500 nM, HU 2 mM 24 h pulse. As for the experimental part: Figure S2. Replication fork stall signaling is dependent on CDK2, HR in CCNE1 - […]
(A) Cyclin E1 protein expression is strongly associated with CCNE1 copy number […]
amplification among TCGA patients with ovarian cancer (n=304) (Welch Two Sample t- […]
test, P = 2.3E-13). (B) Chemical structures of BLU1851. (C) Kinome tree for BLU1851 […]
at 3 µM (S-Score = 0.050). (D) Dose-response curves for BLU1851 enzyme inhibition […]
for indicated CDK family members. Error bars represent SD of at least duplicate independent experiments. (E) NanoBRET assessment of BLU1851 target engagement […]
in indicated CDK complexes expressed in HEK-293 cells. Error bars represent SD of at […]
least duplicate independent experiments. (F) Dose-response curve for pRb T821/826 […]
inhibition by BLU1851 in OVCAR-3 cells. Error bars represent SD of at least duplicate independent experiments. (G) Dose-response curve for pLamin S22 inhibition by BLU1851 in OVCAR-3 and COV644 cells. Error bars represent SD of duplicate independent experiments. (H) Dose-response curves in MCF-7, OVCAR-3 cells. […] (I) Quantification of pCHK1 S317 normalized to […]
allowed to recover in the presence of rabusertib. Confluence was calculated using […]
confluency at experimental endpoint. Confluence was measured by IncuCyte live cell […]
imaging and values were determined using an algorithm to detect cells from phase- […]

Test [7] concerns homologous recombination (3X-FLAG ACTB reporter). In words: CRISPR/Cas9 recombination assay. The settings on record: 25 or 250 nM BLU1851, 10 μM roscovitine; 72 h. The format is cell-based, human. As for the experimental part: pBluescript SK II + and LentiCRISPR v2 plasmids were purchased from Genscript. LentiCRISPR v2 plasmids expressing single guide (sgRNA) against ACTB or scrambled sgRNA were constructed according to the depositor's instructions. To construct HR donor vectors against ACTB, sequences from −1554 to +1527 relative to the stop codon of ACTB plus 3× FLAG directly 5’ from the stop codon were synthesized and cloned into pBluescript SK II using restriction digest and ligation. Compounds were added to cells on the day of plasmid transfection. sgRNA/Cas9 and the donor plasmid were prepared in a 1:2 molar ratio; 1 μg of total DNA/well was transfected onto cells using Lipofectamine 2000 (Thermo Fisher Scientific Cat#11668019). Cells were harvested for Western Blot analysis 72 h later.

In the case of `CC(C)CC(=O)c1c(Nc2ccc(Cl)cc2Cl)[nH]c2c(Cl)ccc([N+](=O)[O-])c2c1=O` [JH-RE-06], in test [1], the “sensitivity of COV644 cells compared with OVCAR-3 cells (proliferative IC50)” value is on record as “more sensitive”. On to `CC(=O)c1c(C)c2cnc(Nc3ccc(N4CCNCC4)cn3)nc2n(C2CCCC2)c1=O` [Palbociclib, reference compound], for which the IC50 in test [2] was 150 nM. Besides, in test [3], the “Kinome S (10)” value was 0.041. As to `O=C1NC(=NCc2cccs2)S/C1=C\c1ccc2ncccc2c1` [RO-3306], the “HR signaling across cell lines tested” value in test [4] is “only a small effect in some cell lines”. On to `N=C1NC(=O)/C(=C/c2ccc(O)cc2)S1` [mirin], for which the “sensitivity of OVCAR-3 cells compared with COV644 cells (proliferative IC50)” value in test [5] is reported as “more sensitive”. As for `Cc1cnc(NC(=O)Nc2cc(Br)c(C)cc2OC[C@@H]2CNCCO2)cn1` [rabusertib], the “proliferation following HU treatment” value in test [6] is reported as “suppressed the ability of OVCAR-3 cells to proliferate following HU treatment”.

`CC[C@H](CO)Nc1nc(NCc2ccccc2)c2ncn(C(C)C)c2n1` [roscovitine]: in test [4], the “HR signaling across cell lines tested” value is given as “suppressed HR signaling in most cell lines tested”. In test [7], the “recombination (3X-FLAG product)” value was “inhibited recombination in all cell lines”.

As to `COC1=C(N)C(=O)c2nc(-c3nc(C(=O)O)c(C)c(-c4ccc(OC)c(OC)c4O)c3N)ccc2C1=O` [streptonigrin], the “sensitivity of OVCAR-3 cells compared with COV644 cells (proliferative IC50)” value in test [5] is on record as “more sensitive”.

The IC50 is the concentration at which inhibition is half-maximal.
